Several values for one entry are separate records, joined by “and”; a condition that tells them apart may be missing. Equal values may be shown once.
Columns and labels:
Dopamine/D2S = Dopamine/D2S (Homo sapiens, UniProt P14416); test: Cerep BioPrint dependence and addiction panel; assay type: binding
[1] = target: CL-Channel (GABA gated) antagonist; test: Cerep BioPrint receptor binding
[2] = test system: TRPV1 vanilloid knockout mice; test: Analgesic effect in TRPV1 vanilloid knockout mice; assay type: in vivo; settings: TRPV1 vanilloid knockout mice (homozygotes)
CB2 Cannabinoid agonist = target: T1, CB2 Cannabinoid agonist (Homo sapiens, UniProt P34972); test: Cerep BioPrint receptor binding
T1 construct: Cerep (contract screen)
Method: (§1) For the initial BioPrint screen, a free compound concentration of 10 μM was used, which corresponds to a 2.5 mg/kg bolus dose in a mouse. […] Thus, a 2.5 mg/kg bolus dose would be equivalent to a […] free compound concentration.

κ-opioid agonist = target: T2, κ-opioid agonist (Rattus norvegicus, UniProt P34975); test: Cerep BioPrint receptor binding
T2 construct: Cerep (contract screen)
Method: as §1

δ- opioid agonist = target: T3, δ- opioid agonist (Homo sapiens, UniProt P41143); test: Cerep BioPrint receptor binding
T3 construct: Cerep (contract screen)
Method: as §1

[3] = test system: Sigma/Sigma non selective; test: Cerep BioPrint dependence and addiction panel; assay type: binding
[4] = target: PPRA-Peroxisome proliferator-activated (Homo sapiens, UniProt P37231); test: Cerep BioPrint receptor binding
dopamine levels = test: Effect on dopamine levels; settings: compared with Δ9-THC
[5] = target: T4, Dopamine/dopamine transporter (Homo sapiens, UniProt Q01959); test: Cerep BioPrint dependence and addiction panel; assay type: binding
T4 construct: Cerep (contract screening panel)

A3 agonist-Adenosine A3 = target: T5, A3 agonist-Adenosine A3 (Homo sapiens, UniProt P0DMS8); test: Cerep BioPrint receptor binding
T5 construct: Cerep (contract screen)

Glutamate/PCP = test: Cerep BioPrint dependence and addiction panel; assay type: binding
Dopamine/D1 = Dopamine/D1 (Homo sapiens, UniProt P21728); test: Cerep BioPrint dependence and addiction panel; assay type: binding
Steroid nuclear/GR = target: T6, Steroid nuclear/GR (Homo sapiens, UniProt P04150); test: Cerep BioPrint dependence and addiction panel; assay type: binding
T6 construct: Cerep (contract screening panel)

Melanocortin/MC4 = target: T7, Melanocortin/MC4 (Homo sapiens, UniProt P32245); test: Cerep BioPrint dependence and addiction panel; assay type: binding
T7 construct: Cerep (contract screen)

in vivo = settings: mouse, iv, 10 mg/kg
[6] = test system: CB1 cannabinoid knockout mice; test: Analgesic effect in CB1 cannabinoid knockout mice; assay type: in vivo; settings: CB1 cannabinoid knockout mice (homozygotes)

T1 sequence (P34972 whole entry): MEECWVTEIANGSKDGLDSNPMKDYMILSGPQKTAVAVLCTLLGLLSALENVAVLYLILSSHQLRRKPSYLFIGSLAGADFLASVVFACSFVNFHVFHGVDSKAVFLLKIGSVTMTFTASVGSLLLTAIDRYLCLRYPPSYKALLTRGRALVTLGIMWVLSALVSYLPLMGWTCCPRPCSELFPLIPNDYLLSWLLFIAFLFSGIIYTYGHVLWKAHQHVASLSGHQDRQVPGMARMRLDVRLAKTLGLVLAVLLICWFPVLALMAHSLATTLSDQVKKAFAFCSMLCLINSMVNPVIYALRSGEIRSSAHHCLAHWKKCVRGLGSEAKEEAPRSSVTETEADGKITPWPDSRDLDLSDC
T5 sequence (P0DMS8 whole entry): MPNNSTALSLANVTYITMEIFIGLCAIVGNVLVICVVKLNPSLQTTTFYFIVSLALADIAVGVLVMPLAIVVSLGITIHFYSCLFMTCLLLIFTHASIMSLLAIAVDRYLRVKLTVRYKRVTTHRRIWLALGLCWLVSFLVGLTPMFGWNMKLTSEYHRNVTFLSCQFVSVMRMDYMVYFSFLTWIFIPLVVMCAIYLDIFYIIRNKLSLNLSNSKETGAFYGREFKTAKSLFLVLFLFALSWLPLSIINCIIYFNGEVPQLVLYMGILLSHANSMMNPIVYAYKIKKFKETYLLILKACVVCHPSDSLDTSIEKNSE
T2 sequence (P34975 whole entry): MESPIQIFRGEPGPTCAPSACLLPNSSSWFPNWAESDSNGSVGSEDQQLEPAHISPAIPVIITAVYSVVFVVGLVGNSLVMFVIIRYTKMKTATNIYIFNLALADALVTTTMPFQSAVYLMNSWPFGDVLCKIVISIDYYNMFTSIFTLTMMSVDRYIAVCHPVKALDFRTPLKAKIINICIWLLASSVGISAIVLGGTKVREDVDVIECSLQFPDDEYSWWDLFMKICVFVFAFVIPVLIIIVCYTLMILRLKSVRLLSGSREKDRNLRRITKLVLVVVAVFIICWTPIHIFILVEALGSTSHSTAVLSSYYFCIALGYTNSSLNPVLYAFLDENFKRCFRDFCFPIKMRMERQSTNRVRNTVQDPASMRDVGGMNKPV
T3 sequence (P41143 whole entry): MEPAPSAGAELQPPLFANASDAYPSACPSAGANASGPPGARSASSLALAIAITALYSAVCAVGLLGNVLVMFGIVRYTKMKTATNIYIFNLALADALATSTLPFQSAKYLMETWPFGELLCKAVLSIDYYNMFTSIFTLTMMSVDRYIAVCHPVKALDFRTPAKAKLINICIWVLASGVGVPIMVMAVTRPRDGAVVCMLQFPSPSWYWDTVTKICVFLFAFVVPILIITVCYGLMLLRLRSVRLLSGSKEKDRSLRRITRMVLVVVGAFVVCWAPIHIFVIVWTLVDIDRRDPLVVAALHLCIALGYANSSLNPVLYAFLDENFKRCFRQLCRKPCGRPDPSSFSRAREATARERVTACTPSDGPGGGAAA
T6 sequence (P04150 whole entry): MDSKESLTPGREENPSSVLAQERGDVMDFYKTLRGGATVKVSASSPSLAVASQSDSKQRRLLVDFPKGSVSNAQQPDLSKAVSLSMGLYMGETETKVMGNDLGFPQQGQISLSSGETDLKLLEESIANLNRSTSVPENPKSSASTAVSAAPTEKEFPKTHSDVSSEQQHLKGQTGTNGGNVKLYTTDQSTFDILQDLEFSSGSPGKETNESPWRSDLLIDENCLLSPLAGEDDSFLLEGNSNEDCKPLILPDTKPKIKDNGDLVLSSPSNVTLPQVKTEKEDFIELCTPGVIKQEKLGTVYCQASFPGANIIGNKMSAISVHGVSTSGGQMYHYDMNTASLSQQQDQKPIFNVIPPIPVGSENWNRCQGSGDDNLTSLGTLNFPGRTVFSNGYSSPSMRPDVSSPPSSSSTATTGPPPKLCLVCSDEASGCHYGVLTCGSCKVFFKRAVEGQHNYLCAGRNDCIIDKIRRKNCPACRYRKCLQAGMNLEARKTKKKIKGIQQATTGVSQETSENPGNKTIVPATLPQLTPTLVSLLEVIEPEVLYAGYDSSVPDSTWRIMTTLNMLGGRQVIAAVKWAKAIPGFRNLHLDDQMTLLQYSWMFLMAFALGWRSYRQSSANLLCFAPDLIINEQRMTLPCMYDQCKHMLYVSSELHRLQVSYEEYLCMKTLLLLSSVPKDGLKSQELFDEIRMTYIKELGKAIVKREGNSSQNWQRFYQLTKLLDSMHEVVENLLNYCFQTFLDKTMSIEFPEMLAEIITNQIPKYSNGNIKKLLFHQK
T7 sequence (P32245 whole entry): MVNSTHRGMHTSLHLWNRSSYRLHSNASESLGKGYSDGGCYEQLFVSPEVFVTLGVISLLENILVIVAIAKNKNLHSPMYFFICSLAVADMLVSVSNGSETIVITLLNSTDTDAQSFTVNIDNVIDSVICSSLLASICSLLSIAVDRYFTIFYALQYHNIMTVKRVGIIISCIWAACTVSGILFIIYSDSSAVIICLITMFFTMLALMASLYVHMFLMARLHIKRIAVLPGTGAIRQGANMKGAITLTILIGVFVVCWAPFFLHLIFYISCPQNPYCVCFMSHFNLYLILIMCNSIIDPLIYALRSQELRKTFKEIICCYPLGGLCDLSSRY
PPRA-Peroxisome proliferator-activated, sequence (P37231 whole entry): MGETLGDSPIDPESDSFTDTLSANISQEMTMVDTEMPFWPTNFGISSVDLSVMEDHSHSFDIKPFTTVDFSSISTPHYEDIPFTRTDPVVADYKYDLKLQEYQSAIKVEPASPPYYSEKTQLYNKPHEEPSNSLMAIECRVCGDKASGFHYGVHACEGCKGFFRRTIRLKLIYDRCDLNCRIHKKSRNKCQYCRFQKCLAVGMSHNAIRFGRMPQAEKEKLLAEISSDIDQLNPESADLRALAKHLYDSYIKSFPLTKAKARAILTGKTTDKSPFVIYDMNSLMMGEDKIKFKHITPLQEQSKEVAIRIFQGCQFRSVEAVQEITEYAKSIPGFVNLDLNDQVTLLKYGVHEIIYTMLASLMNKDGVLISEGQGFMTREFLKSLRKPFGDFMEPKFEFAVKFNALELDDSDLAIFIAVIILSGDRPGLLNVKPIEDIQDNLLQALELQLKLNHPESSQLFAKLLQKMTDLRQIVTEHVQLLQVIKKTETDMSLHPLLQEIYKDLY
Dopamine/D2S, sequence (P14416 other isoform, or with tags, fused parts or gaps): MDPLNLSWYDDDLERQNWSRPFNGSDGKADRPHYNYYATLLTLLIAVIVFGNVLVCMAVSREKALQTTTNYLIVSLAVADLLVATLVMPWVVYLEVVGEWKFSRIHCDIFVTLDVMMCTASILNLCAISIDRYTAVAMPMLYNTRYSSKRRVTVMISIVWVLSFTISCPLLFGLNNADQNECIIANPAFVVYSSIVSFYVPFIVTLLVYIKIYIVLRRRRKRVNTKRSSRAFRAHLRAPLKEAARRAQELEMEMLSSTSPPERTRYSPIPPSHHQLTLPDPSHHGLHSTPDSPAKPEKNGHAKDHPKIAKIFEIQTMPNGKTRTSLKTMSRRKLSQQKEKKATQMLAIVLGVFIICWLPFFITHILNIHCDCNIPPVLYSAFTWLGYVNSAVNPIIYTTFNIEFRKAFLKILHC
T4 sequence (Q01959 whole entry): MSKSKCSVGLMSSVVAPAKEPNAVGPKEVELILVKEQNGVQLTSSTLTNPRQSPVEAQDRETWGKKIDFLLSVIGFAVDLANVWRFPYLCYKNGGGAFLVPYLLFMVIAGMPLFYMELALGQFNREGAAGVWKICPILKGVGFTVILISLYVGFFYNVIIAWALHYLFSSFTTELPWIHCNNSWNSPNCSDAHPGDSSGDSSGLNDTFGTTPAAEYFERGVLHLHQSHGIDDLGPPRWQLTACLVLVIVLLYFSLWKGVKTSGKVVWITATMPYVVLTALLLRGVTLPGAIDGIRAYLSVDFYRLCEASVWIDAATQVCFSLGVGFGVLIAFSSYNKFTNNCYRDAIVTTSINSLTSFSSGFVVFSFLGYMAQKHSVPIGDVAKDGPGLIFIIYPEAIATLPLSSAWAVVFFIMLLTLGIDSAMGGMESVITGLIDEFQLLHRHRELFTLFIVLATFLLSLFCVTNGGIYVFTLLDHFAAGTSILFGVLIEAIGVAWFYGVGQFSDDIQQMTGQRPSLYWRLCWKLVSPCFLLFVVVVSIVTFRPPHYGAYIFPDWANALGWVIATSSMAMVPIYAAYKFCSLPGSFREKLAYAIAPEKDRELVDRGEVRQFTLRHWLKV
Dopamine/D1, sequence (P21728 whole entry): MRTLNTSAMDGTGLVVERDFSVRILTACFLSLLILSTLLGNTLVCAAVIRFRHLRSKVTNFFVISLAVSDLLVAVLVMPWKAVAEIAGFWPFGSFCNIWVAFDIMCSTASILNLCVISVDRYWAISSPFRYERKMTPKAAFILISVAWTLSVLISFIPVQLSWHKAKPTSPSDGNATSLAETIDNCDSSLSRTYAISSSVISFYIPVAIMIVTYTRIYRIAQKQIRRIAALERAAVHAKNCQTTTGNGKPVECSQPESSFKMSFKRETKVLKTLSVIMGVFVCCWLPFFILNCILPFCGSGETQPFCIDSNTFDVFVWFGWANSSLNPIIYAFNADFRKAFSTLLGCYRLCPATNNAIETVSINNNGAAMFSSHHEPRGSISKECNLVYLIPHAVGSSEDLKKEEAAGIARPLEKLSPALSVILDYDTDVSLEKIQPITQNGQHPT

For `CCCCCC(=O)N(CC/C=C\C/C=C\C/C=C\CCCC(=O)NC1CC1)C(C)C` [CMX-020], the “% Inhibition @10 uM” value (Dopamine/D2S) was 8%, the IC50 [1] was 5.1 µM and the “analgesic effect in knockout mice” value [2] was “altered”. For the same molecule, the IC50 (CB2 Cannabinoid agonist) was 0.15 µM, the inhibition at 10 µM (CB2 Cannabinoid agonist; CB2 Cannabinoid agonist, 10 uM) was 98% and the IC50 (κ-opioid agonist) was 4.7 µM. It also gave an inhibition at 10 µM (κ-opioid agonist; κ-opioid agonist, 10 uM) of 61%, an IC50 (δ- opioid agonist) of 13 µM and an inhibition at 10 µM (δ- opioid agonist; δ- opioid agonist, 10 uM) of 52%. For the same molecule, the “% Inhibition @10 uM” value [3] was 31%, the inhibition at 10 µM [4] was 58% and the “effect on dopamine levels” value (dopamine levels) was “does not elevate dopamine levels”. It also gave an inhibition at 10 µM [5] of 15%, an IC50 (A3 agonist-Adenosine A3) of 2.6 µM and an inhibition at 10 µM (A3 agonist-Adenosine A3; A3 agonist-Adenosine A3, 10 uM) of 64%. For the same molecule, the “% Inhibition @10 uM” value (Glutamate/PCP) was −6%, the “% Inhibition @10 uM” value (Dopamine/D1) was 7% and the inhibition at 10 µM (Steroid nuclear/GR) was 9%. The inhibition at 10 µM (Melanocortin/MC4) was 0%, the concentration at 15 min (in vivo; brain) was 704 ng/g and the concentration at 60 min (in vivo; brain) was under 20 ng/g. The concentration at 15 min (in vivo; liver) was 170 ng/g, the concentration at 60 min (in vivo; liver) was under 20 ng/g and the C0 (in vivo; plasma) was ~14000 ng/mL and ~33 µM. The half-life (in vivo; plasma) was about 17 min and the “analgesic effect in knockout mice” value [6] was “almost completely blocked”.

— patent US9096494B2, “Arachidonic acid analogs and methods for analgesic treatment using same” (priority 2009, dated 2015)
